From PMC4666645 (PLoS Pathogens, 2015) come the findings set out here.

Values joined by “and” are separate entries in the source; they are usually repeats but may differ in a detail not shown here. Identical values can stand only once. Counter-ions that a name gives are not always drawn. Like-named read-outs stand apart in the source and are kept apart here.

The test system of one test is C. elegans N2. Description: Dose-response thrashing assay on wild-type C. elegans N2. Format: in vivo, Caenorhabditis elegans. The settings on record: for Minimal drug concentration causing significant reduction in wild-type motility: 10 min exposure. As for the experimental part:
Worms were maintained at 20°C on nematode growth medium (NGM) plates and fed on a bacterial lawn (Escherichia coli OP50). Bristol N2 was used as a reference wild-type C. elegans strain. Dose-response assays were performed on gravid adults placed in wells of a 96-well plate containing M9 salt solution (3 g/L KH2PO4, 6 g/L Na2HPO4, 5 g/L NaCl, and 1 mM MgSO4 with BSA at 0.1%) with varying anthelmintic concentrations. After 10 min, worm thrashing was counted for 1 min. A thrash was defined as a change in the direction of bending at the mid-body to return to the initial position. For each drug concentration, 30 worms were tested. Hco-acr-26, Hco-acr-27, Peq-acr-26 and Peq-acr-27 coding sequences were sub-cloned into the pPD96.52 (Addgene) vector containing the muscle promoter Pmyo3. Primer sequences containing the suitable restriction sites are listed in S3 Table. Extrachromosomal transgenic strains of C. elegans were obtained by micro-injecting DNA into the gonads of young adult hermaphrodite worms as described. N2 worms were injected with different mixes containing Pmyo3::Hco-acr-26; Pmyo3::Hco-acr-27; Pmyo3::Peq-acr-26; Pmyo3::Peq-acr-27 alone or in combination (Pmyo3::Hco-acr-26 + Pmyo3::Hco-acr-27 or Pmyo3::Peq-acr-26 + Pmyo3::Peq-acr-27) with a final concentration of 40 ng/μl for each plasmid. The plasmid pPD118.33_Pmyo2::gfp (Addgene) was co-injected at 25 ng/μl as a transformation marker. For each mixes, at least two independent lines were generated. For each line, thrashing assays were carried on at least 12 F1-worms carrying the selection marker. L4 larvae from N2 and transformed worms were transferred one day before the thrashing assay on NGM plate. One young adult was placed in each well of a 12-well plate containing M9 salt buffer. Thrashes produced by each worm during 1 minute were counted after a 10 minutes equilibration period. After drug application, thrashes were counted after 10, 20 and 30 minutes of exposure. Experimental data are shown as mean ± SEM. Statistical comparisons were done using the paired or unpaired Student’s t test or one-way ANOVA with Tukey’s multiple comparison test. A level of p<0.05 was considered significant. For each line, expression of the introduced acr-26 and/or acr-27 coding sequences from H. contortus or P. equorum was confirmed by RT-PCR experiments performed on 12 pooled worms. A partial sequence corresponding to the C. elegans endogenous AChR unc-38 transcript was amplified with primers designed on two independent exons in order to control the cDNA template quality. Primer sequences are listed in S3 Table.
Supplementary file ppat.1005267.s004.tif: S4 Fig Thrashing assays performed on C. elegans (N2) with different anthelmintic molecules. […] Thrashes of gravid wild-type adults were counted for one minute after 10 minutes of drug exposure. […] Results are expressed as mean ± SEM derived from three independent sets of experiments. For each treatment, 30 worms were included in the analysis. […] Statistical analyses were performed using a One-Way Anova with Tukey’s Multiple Comparison Test with **p<0.01, ***p<0.001. (TIF) Click here for additional data file.

The test system of test [1] is C. elegans expressing Peq-26/27. Put plainly: Thrashing assay on transgenic C. elegans expressing Peq-26/27. The format is in vivo, Caenorhabditis elegans. From the text:
Taking advantage of the absence of acr-26 and acr-27 homologs in the C. elegans genome, we used wild type N2 worms to express these two parasitic nematode AChR subunits. […] For Peq-ACR-26 and Peq-ACR-27, even though the localization of these subunits in Parascaris equorum remains to be investigated in more detail, we also used myo3 as a promoter in order to compare the functional impact of Hco-26/27 and Peq-26/27 on both motility and drug sensitivity in transgenic C. elegans.
Worms were maintained at 20°C on nematode growth medium (NGM) plates and fed on a bacterial lawn (Escherichia coli OP50). Bristol N2 was used as a reference wild-type C. elegans strain. Dose-response assays were performed on gravid adults placed in wells of a 96-well plate containing M9 salt solution (3 g/L KH2PO4, 6 g/L Na2HPO4, 5 g/L NaCl, and 1 mM MgSO4 with BSA at 0.1%) with varying anthelmintic concentrations. After 10 min, worm thrashing was counted for 1 min. A thrash was defined as a change in the direction of bending at the mid-body to return to the initial position. For each drug concentration, 30 worms were tested. Hco-acr-26, Hco-acr-27, Peq-acr-26 and Peq-acr-27 coding sequences were sub-cloned into the pPD96.52 (Addgene) vector containing the muscle promoter Pmyo3. Primer sequences containing the suitable restriction sites are listed in S3 Table. Extrachromosomal transgenic strains of C. elegans were obtained by micro-injecting DNA into the gonads of young adult hermaphrodite worms as described. N2 worms were injected with different mixes containing Pmyo3::Hco-acr-26; Pmyo3::Hco-acr-27; Pmyo3::Peq-acr-26; Pmyo3::Peq-acr-27 alone or in combination (Pmyo3::Hco-acr-26 + Pmyo3::Hco-acr-27 or Pmyo3::Peq-acr-26 + Pmyo3::Peq-acr-27) with a final concentration of 40 ng/μl for each plasmid. The plasmid pPD118.33_Pmyo2::gfp (Addgene) was co-injected at 25 ng/μl as a transformation marker. […] Thrashes produced by each worm during 1 minute were counted after a 10 minutes equilibration period. After drug application, thrashes were counted after 10, 20 and 30 minutes of exposure. […]

The target of a further test is Hco-26/27 receptor (Haemonchus contortus, UniProt A9XX30+S4VAP0). Description: cell-based. An excerpt: In order to investigate if the overlapping expression contributed to functional receptors, we co-expressed Hco-ACR-26 and Hco-ACR-27 in Xenopus laevis oocytes. We have previously reported that the functional expression of nematode muscle AChRs in Xenopus oocytes requires the addition of ancillary proteins. Therefore, cRNAs encoding the subunits Hco-ACR-26 and Hco-ACR-27, in combination with three ancillary proteins (Hco-ric-3.1, Hco-unc-74 and Hco-unc-50) were co-injected into Xenopus oocytes. […] Subsequently, different cRNA combinations were injected into Xenopus oocytes in order to determine the minimal subunit combination leading to the expression of a functional receptor and verify the ancillary factor requirement.
Chain of Hco-26/27 receptor (A9XX30 entry or part of it): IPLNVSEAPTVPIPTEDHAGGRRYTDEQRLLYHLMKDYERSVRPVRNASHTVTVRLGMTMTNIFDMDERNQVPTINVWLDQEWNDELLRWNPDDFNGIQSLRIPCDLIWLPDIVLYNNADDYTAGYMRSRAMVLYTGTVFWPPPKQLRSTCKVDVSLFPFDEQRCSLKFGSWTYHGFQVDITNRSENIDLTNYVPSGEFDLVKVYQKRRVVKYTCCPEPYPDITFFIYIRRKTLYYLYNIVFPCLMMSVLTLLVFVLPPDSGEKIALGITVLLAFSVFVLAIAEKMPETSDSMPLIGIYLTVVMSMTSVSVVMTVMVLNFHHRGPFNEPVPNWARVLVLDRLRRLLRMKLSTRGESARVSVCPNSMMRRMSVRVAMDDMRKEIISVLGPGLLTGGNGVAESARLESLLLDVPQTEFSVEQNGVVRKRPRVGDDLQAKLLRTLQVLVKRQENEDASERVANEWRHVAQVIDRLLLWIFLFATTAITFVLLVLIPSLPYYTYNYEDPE
Chain of Hco-26/27 receptor (S4VAP0 entry or part of it): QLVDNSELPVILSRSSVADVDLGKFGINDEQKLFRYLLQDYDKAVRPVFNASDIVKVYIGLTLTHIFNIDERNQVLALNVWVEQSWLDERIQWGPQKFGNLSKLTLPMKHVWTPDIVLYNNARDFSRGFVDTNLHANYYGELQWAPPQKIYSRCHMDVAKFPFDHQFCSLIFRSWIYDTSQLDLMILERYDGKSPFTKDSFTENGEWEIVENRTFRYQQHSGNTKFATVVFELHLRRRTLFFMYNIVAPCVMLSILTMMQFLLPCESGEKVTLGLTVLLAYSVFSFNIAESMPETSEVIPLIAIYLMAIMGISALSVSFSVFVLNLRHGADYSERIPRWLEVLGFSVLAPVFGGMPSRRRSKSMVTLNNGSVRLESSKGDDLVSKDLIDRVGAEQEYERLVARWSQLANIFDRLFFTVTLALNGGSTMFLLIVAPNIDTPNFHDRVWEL
The subunit stoichiometry has been previously reported to impact the pharmacological properties of some nematode AChRs expressed in Xenopus oocytes.
(§1) H. contortus and P. equorum acr-26 and acr-27 cDNAs were PCR-amplified using primers containing a restriction site in order to be sub-cloned into the expression vector pTB207 that is suitable for in vitro transcription. Primers are listed in S3 Table. The resulting plasmids were linearized with the NheI restriction enzyme (Fermantas) and used as templates for cRNA synthesis using the T7 mMessage mMachine kit (Ambion). Xenopus laevis ovaries were obtained from the University of Rennes, France (CRB Xenope) and defolliculated using 2 mg/ml collagenase type II (Gibco) in the incubation solution containing: 100 mM NaCl, 2 mM KCl, 1.8 mM CaCl2.2H2O, 1 mM MgCl2.6H2O, 5 mM HEPES, 2.5 mM C3H3NaO3, pH 7.5, supplemented with penicillin 100 U/mL and streptomycin 100 μg/mL). The oocytes were injected in the animal pole with a total volume of 36 nL of cRNA mix containing 50 ng/μL of each cRNA in RNase-free water using the Drummond nanoject II microinjector. Microinjected oocytes were kept at 20°C in incubation medium for 4 days to allow the receptors expression. Two-electrode voltage-clamp recordings were carried out using an Oocyte Clamp OC-725C amplifier (Warner instrument) in oocytes being voltage-clamped at -60mV. All agonist preparations were prepared with recording buffer (100 mM NaCl, 2.5 mM KCl, 1 mM CaCl2.2H2O, 5 mM HEPES, pH 7.3). Currents were recorded and analyzed using the pCLAMP 10.4 package (Molecular Devices).

Another test has as its target Peq-26/27 receptor (Parascaris equorum, UniProt A0A0U2ES47+A0A0U2ES58). Put plainly: cell-based. As to conditions: for Emax at 100 µM: read-out: Current elicited, % of ACh response. As for the experimental part: In order to determine if ACR-26 and ACR-27 subunits from other parasitic nematodes species could also form functional receptors when expressed in Xenopus oocyte, Peq-acr-26 and Peq-acr-27 cRNAs from the distantly related P. equorum (Clade III) were co-injected in combination with Hco-ric-3.1, Hco-unc-74 and Hco-unc-50 cRNAs. Four days after injection, we observed robust expression of a functional AChR responding to 100 μM ACh (Fig 6B). […] This novel heteropentameric AChR was named Peq-26/27.
as §1

Setting [2] is: Caenorhabditis elegans, 10 min, 10 min drug exposure, gravid adults, read-out: IC50 (reduction of thrashing).
The mark [3] stands for this setting: read-out: Relative maximal current (Imax) normalized to 100 μM acetylcholine, cRNA ratio 1:1 26/27, 100 μM agonist.
The mark [4] stands for this setting: read-out: Relative maximal current (Imax) normalized to 100 μM acetylcholine, cRNA ratio 1:5 26/27, 100 μM agonist.
Where [5] appears, read: read-out: Relative maximal current (Imax) normalized to 100 μM acetylcholine, cRNA ratio 5:1 26/27, 100 μM agonist.
The mark [6] stands for this setting: read-out: Current elicited, % of ACh response, 100 μM agonist, normalized to 100 μM ACh current, equal subunit ratio.

Chain of Peq-26/27 receptor (A0A0U2ES58 entry or part of it): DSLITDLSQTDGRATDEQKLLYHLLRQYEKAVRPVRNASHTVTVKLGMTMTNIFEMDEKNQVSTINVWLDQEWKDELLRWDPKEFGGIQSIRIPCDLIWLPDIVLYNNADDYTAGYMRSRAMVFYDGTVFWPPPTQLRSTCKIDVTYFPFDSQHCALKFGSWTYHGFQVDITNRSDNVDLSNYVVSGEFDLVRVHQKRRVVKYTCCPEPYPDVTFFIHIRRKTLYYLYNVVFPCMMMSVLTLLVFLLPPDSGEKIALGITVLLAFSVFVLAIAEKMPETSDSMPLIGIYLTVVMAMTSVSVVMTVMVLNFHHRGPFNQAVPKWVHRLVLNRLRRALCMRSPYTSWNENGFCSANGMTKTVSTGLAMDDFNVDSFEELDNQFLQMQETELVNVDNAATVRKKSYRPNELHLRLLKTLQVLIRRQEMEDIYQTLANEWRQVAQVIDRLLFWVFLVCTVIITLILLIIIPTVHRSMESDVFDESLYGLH
Chain of Peq-26/27 receptor (A0A0U2ES47 entry or part of it): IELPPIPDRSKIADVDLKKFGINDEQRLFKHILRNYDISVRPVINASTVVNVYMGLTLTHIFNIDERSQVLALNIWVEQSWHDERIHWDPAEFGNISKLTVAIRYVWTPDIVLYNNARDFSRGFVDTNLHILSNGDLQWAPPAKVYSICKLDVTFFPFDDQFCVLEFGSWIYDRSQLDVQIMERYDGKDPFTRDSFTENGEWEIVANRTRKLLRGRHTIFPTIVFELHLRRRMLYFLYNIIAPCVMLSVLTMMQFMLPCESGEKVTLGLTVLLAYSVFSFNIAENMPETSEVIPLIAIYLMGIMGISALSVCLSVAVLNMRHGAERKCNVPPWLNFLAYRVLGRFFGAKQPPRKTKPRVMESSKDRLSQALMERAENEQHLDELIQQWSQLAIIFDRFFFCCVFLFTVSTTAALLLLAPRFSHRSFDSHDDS

Consider `c1ccc([C@H]2CN3CCSC3=N2)cc1` [Lev, (-)-tetramisole hydrochloride], for which the “Minimal drug concentration causing significant reduction in wild-type motility” value in the test with C. elegans N2 was 5 µM. The concentration for half-maximal inhibition (IC50) (in general, the midpoint of a concentration-inhibition curve) in the test with C. elegans N2 (setting [2]) was 7 ± 1.1 µM. The “Change in sensitivity versus N2” value in test [1] (5 μM Lev) is recorded as “no significant change”. For the same compound, the “Current elicited, % of ACh response” value on Hco-26/27 receptor (100 μM agonist, normalized to 100 μM ACh current, equal subunit ratio) is “insensitive”. Further, the Emax at 100 µM at Hco-26/27 receptor (setting [3]) was found to be 3.46 ± 1.44%; at Hco-26/27 receptor (setting [4]) it was 4.18 ± 2.89%; on Hco-26/27 receptor (setting [5]), 1.77 ± 1.77%; on Peq-26/27 receptor it was 24.5 ± 2.4%. Further, at Peq-26/27 receptor (EC50, responses normalized to 1 mM ACh), the EC50 – broadly, the midpoint of the concentration-response curve – is 16.7 µM and 17 µM.

Regarding `Cc1ccsc1/C=C/C1=NCCCN1C` [Mor, morantel], the “Minimal drug concentration causing significant reduction in wild-type motility” value in the test with C. elegans N2 stood at 40 µM. The IC50 in the test on C. elegans N2 (Caenorhabditis elegans, 10 min, read-out: IC50 (reduction of thrashing), 10 min drug exposure, gravid adults) stood at 44 ± 1.03 µM; in the test on C. elegans N2 (read-out: IC50 (reduction of thrashing), 10 min drug exposure, gravid adults), 44.1 ± 1 µM. The “Reduction of thrashing motility” value in test [1] (40 μM Mor, 10 minutes exposure) was 62.7%. In addition, on Hco-26/27 receptor, the EC50 was determined as 29 ± 1.3 µM. The “Imax reduction with fivefold increase of Hco-ACR-27 versus equal subunit ratios” value on Hco-26/27 receptor (100 μM, p<0.001) is on record as 2 fold. In addition, the Emax at 100 µM at Hco-26/27 receptor (setting [6]) amounted to 249 ± 11.5%; on Hco-26/27 receptor (setting [3]) it was 249 ± 11.5%; at Hco-26/27 receptor (setting [4]), 137 ± 19.7%; on Hco-26/27 receptor (setting [5]) it was 265 ± 29.1%; on Peq-26/27 receptor it was 74.5 ± 4.9%.

On to `CN1CCCN=C1/C=C/c1cccs1` [Pyr, pyrantel], for which the “Minimal drug concentration causing significant reduction in wild-type motility” value in the test on C. elegans N2 is 50 µM. For the same compound, the IC50 with C. elegans N2 (setting [2]) was 107 ± 1.2 µM. For the same compound, the “Percentage reduction of thrashes min^-1” value in test [1] (50 μM Pyr, 10 minutes of drug exposure) is 61.6%. Further, the EC50 on Hco-26/27 receptor turned out to be 6.8 ± 1.3 µM. The Emax at 100 µM at Hco-26/27 receptor (setting [6]) was determined as 81 ± 6.21%; on Hco-26/27 receptor (setting [3]) it was 81 ± 6.21%; at Hco-26/27 receptor (setting [4]), 83.1 ± 17.9%; at Hco-26/27 receptor (setting [5]) it was 84.1 ± 8.54%; on Peq-26/27 receptor, 21.8 ± 2.1%.
